Results taken from paper PMC7471006, “A Simplified Quantitative Real-Time PCR Assay for Monitoring SARS-CoV-2 Growth in Cell Culture” (mSphere, 2020).
Where two headings read alike, the source gives them in different places.

Assays:
SARS-CoV-2 = assay: SYBR green-based qRT-PCR of SARS-CoV-2 RNA in supernatants of infected Vero E6 cells (compound screen); type: cell-based; conditions: for Effect on SARS-CoV-2 viral RNA in supernatants / SARS-CoV-2 replication: MOI 0.01, 24 hpi, result in words; for IC50: Severe acute respiratory syndrome coronavirus 2, Vero C1008, MOI 0.01, 24 hpi, read-out: IC50 (50% inhibitory concentration), SARS-CoV-2 viral RNA in supernatants
Vero E6 cells [1] = test system: Vero E6 cells
Vero E6 cells [2] = assay: RealTime-Glo MT cell viability assay (compound cytotoxicity); conditions: parallel plates, result in words

SMILES | Effect on SARS-CoV-2 viral RNA in supernatants / SARS-CoV-2 replication (SARS-CoV-2) | Compound cytotoxicity (Vero E6 cells [1]) | Compound cytotoxicity (Vero E6 cells [2]) | Potency on SARS-CoV-2 viral RNA in supernatants compared with 24 hpi (SARS-CoV-2; 48 hpi, data not shown) | IC50 (SARS-CoV-2)
Cc1nc2ccc(Br)cc2c(-c2ccc(Cl)cc2)c1C(OC(C)(C)C)C(=O)O (stereo not shown) [ALLINI-2] | modestly inhibited | without apparent cytotoxicity | – | – | –
CCN(c1nc(N)c(C(=O)NC(=N)N)nc1Cl)C(C)C [EIPA, ethylisopropylamiloride] | substantially decreased viral RNA in supernatants at subcytotoxic levels | – | – | – | –
CC(C)CN(C[C@@H](O)[C@H](Cc1ccccc1)NC(=O)O[C@H]1CCOC1)S(=O)(=O)c1ccc(N)cc1 [amprenavir] | modestly inhibited | – | without apparent cytotoxicity | – | –
Cc1cccc(/C=N/Nc2cc(N3CCOCC3)nc(OCCc3ccccn3)n2)c1 [apilimod] | substantially decreased | minimal cytotoxicity | – | less potent | 12 nM
Cc1ccnc2c1NC(=O)c1cccnc1N2C1CC1 [nevirapine] | modestly inhibited | – | without apparent cytotoxicity | – | –
CCC(CC)COC(=O)[C@H](C)N[P@](=O)(OC[C@H]1O[C@@](C#N)(c2ccc3c(N)ncnn23)[C@H](O)[C@@H]1O)Oc1ccccc1 [remdesivir] | substantially decreased | – | – | – | 2.8 µg/mL
